From ChEMBL document CHEMBL1201862, “PubChem BioAssay data set” (2004)
Activity calls are given as the source filed them.

What was measured:
Streptococcus = experiment: GAS UMAA2166 growth inhibition – luminescence, BacTiterGlo, counter-screen for streptokinase expression inhibitor project, dose response (AID 1915); type: functional, organism-based;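 further: potency for reduction of bacterial viability or growth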
Streptokinase A = biological target: T1, Streptokinase A (Streptococcus pyogenes serotype M1, UniProt P10520); experiment: viability-normalized secreted streptokinase activity reduction – plasminogen activation absorbance, OD405, dose response (AID 1914); type: functional, Streptococcus pyogenes M1 GAS;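 further: secreted streptokinase activity via plasminogen activation per viability signal from cell pellet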
T1 sequence (P10520 whole entry): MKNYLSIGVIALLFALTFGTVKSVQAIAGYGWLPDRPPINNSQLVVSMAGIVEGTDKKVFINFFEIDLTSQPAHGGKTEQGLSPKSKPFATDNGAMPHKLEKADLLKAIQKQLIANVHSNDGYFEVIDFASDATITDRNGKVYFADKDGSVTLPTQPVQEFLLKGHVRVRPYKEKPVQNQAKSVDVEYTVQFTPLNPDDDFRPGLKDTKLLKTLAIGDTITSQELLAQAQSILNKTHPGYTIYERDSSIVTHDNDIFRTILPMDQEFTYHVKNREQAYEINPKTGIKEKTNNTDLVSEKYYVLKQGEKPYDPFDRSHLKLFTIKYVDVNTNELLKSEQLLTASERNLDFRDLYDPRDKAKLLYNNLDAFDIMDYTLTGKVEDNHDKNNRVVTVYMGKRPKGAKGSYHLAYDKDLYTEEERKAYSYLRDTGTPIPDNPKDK

[1] = system: Streptococcus sp. 'group A'; experiment: Streptococcus pyogenes SK(-)GAS viability under kanamycin – luminescence, BacTiterGlo, confirmation, counter-screen for streptokinase expression inhibitor project, dose response (AID 1900); type: functional, organism-based
Prothrombin = Prothrombin (Homo sapiens, UniProt P00734); experiment: Thrombin 1536 HTS Dose Response Confirmation. [Related pubchem assays: 1046 (Thrombin 1536 HTS; hits were confirmed in this assay)]; type: functional
[2] = biological target: T2, Heat shock factor protein 1 (Mus musculus, UniProt P38532); experiment: enhancement of HSF1-driven luciferase signal – cell-based, NIH3T3, luminescence, dose retest, confirmation (AID 435004); type: functional;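 further: stress induced by proteasome inhibitor MG132 added 30 min after compound; luciferase reporter driven by HSF1 response element in NIH3T3 cells; actives raise luminescence as potentiators of the MG132 stress response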
T2 sequence (P38532 whole entry): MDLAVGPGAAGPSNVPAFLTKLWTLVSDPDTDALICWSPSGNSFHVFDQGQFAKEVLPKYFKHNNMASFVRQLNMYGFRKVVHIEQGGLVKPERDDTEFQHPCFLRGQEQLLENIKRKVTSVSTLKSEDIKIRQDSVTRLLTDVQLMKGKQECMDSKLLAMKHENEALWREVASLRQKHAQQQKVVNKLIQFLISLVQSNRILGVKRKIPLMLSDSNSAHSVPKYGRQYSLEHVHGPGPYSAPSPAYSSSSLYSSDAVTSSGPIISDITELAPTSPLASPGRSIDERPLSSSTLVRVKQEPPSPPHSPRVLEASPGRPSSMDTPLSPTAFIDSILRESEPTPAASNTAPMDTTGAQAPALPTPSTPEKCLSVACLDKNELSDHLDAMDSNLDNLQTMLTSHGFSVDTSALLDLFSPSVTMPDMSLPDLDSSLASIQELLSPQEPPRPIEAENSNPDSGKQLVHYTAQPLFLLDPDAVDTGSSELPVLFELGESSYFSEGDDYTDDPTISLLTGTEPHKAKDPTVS

[3] = viability of uninfected HEp-2 cells – cell-based, HTS, cytotoxicity control for RSV inhibitor project, dose response (AID 2410); type: functional; details: human respiratory syncytial virus
[4] = biological target: T3, Ubiquitin-conjugating enzyme E2 N (Homo sapiens, UniProt P61088); type: functional
T3 sequence (P61088 whole entry): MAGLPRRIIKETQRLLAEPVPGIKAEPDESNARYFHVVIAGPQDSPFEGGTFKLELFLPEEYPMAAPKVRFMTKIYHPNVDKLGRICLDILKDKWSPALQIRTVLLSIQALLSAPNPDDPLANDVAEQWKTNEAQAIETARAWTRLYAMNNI

[5] = biological target: Neurotensin receptor type 1 (Homo sapiens, UniProt P30989); type: functional;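 further: Image-based confirmatory dose-response assay measuring agonist activity at NTR1; NTR1-expressing U2OS osteosarcoma cells imaged for beta-arrestin GFP spot formation; agonist potency where compounds increase beta-arrestin recruitment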
[6] = Luminescence Cell-Based Dose Retest to Confirm Inhibitors of Cancer Stem Cells. [Related pubchem assays (depositor defined):AID2717, AID2721]; type: functional; details: Homo sapiens
[7] = A Cell Based Secondary Assay To Explore Cytotoxicity of Compounds that Sensitize Mycobacterium Tuberculosis to Beta-Lactam Antibiotics.; type: functional
[8] = HEK-293T cell viability reduction – luminescence, B-cell screen hits, cytotoxicity control for BCR NF-kB inhibitor project, dose response (AID 489021); type: functional, cell-based;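 further: HEK-293T cells carrying an NF-kB luciferase reporter; cells exposed to compound for about 14 hours before viability readout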
[9] = biological target: T4, DNA repair protein RAD52 homolog (Homo sapiens, UniProt P43351); type: functional, biochemical
T4 sequence (P43351 whole entry): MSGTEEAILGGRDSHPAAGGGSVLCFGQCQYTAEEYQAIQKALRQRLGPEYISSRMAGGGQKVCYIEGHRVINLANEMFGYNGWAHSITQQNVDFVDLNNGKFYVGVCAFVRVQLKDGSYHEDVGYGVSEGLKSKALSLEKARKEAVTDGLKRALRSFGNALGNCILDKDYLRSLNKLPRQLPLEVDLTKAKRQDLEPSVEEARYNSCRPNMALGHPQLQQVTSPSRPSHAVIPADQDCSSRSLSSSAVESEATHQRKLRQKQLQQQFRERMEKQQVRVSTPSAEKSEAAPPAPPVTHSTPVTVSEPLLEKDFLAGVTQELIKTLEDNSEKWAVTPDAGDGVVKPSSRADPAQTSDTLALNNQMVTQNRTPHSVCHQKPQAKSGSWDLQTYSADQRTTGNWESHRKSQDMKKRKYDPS

[10] = biological target: T3, Ubiquitin-conjugating enzyme E2 N; type: functional; remark: listed apart in the source
Bcl-2-related protein A1 = biological target: T5, Bcl-2-related protein A1 (Mus musculus, UniProt Q07440); type: functional;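 further: confirmatory dose–response counterscreen on Bfl-1, used to check hits from a UBC13 polyubiquitin inhibitor campaign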
T5 sequence (Q07440 whole entry): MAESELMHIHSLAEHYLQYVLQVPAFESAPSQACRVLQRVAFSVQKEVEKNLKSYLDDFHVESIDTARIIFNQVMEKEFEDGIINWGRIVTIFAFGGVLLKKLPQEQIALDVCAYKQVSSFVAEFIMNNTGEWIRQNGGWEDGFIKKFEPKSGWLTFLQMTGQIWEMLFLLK

[11] = biological target: T6, Long-chain-fatty-acid--AMP ligase FadD28 (Mycobacterium tuberculosis, UniProt P9WQ59); experiment: Fluorescence polarization aasay to screen for inhibitors that compete for the binding of FadD28 to a bisubstrate Measured in Biochemical System Using Plate Reader - 2147-01_Inhibitor_Dose_CherryPick_Activity.; type: functional, Mycobacterium tuberculosis H37Rv
T6 sequence (P9WQ59 whole entry): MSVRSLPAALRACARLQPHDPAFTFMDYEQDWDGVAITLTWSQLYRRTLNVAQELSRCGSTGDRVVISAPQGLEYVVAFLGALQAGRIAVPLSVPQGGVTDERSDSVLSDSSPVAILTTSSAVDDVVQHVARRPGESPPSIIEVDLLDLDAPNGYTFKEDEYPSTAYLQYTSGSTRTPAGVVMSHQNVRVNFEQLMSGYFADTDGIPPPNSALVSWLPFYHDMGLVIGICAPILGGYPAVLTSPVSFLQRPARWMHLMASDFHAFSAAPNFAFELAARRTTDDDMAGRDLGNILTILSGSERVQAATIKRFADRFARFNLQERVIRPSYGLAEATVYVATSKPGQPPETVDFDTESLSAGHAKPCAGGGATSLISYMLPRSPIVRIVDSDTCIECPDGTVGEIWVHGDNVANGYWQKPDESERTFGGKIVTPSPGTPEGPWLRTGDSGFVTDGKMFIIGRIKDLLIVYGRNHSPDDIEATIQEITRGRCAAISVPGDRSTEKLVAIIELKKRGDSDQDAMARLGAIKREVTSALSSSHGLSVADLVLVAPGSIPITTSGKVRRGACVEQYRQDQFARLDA

[12] = off-target signal loss in HeLa-CEM21 co-culture – HeLa F-luc CTL cells, cherry-picked, counter-screen for HIV-1 Env fusion inhibitor project, dose response (AID 652040); type: functional, cell-based;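 further: potency for signal decrease marking cytotoxic or nonspecific inhibition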
[13] = blockers of HIV-1 envelope-mediated cell-cell fusion – cherry-pick, dose response (AID 652057); type: functional, cell-based
Aminopeptidase N = biological target: T7, Aminopeptidase N (Plasmodium falciparum FcB1/Columbia, UniProt O96935); experiment: malaria alanyl aminopeptidase activity blockers – biochemical, fluorogenic H-Leu-NHMec substrate, 1536-well (AID 1445); set-up: species or system Plasmodium falciparum 3D7, 3D7
T7 sequence (O96935 whole entry): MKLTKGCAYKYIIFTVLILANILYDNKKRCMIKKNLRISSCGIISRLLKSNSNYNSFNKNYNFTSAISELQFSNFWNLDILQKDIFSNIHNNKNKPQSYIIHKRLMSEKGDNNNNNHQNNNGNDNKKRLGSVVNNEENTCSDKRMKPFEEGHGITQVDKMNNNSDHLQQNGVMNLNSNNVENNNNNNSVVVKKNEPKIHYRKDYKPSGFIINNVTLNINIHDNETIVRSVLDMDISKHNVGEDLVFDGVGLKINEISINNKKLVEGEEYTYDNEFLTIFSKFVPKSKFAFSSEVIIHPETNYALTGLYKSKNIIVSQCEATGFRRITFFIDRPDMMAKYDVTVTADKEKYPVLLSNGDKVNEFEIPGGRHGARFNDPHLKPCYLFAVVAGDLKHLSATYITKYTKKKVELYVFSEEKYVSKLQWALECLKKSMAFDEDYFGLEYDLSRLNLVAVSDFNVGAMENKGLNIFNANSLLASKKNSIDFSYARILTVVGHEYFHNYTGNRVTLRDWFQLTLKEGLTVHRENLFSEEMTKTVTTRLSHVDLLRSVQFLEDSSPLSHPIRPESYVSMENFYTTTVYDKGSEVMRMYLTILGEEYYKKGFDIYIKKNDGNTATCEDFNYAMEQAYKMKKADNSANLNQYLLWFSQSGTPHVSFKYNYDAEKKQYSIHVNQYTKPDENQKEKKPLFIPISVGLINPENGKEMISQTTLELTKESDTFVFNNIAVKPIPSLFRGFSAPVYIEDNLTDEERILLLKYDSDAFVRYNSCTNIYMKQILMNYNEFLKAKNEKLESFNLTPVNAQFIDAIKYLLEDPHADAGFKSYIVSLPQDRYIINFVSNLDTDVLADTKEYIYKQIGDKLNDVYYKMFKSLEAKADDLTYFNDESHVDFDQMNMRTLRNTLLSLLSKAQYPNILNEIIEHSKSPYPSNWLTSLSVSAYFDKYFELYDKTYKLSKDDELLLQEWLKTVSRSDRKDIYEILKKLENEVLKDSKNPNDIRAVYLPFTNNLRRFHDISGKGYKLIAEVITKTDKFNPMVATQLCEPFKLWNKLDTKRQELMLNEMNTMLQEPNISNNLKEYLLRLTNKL

Chain of Neurotensin receptor type 1 (P30989 whole entry): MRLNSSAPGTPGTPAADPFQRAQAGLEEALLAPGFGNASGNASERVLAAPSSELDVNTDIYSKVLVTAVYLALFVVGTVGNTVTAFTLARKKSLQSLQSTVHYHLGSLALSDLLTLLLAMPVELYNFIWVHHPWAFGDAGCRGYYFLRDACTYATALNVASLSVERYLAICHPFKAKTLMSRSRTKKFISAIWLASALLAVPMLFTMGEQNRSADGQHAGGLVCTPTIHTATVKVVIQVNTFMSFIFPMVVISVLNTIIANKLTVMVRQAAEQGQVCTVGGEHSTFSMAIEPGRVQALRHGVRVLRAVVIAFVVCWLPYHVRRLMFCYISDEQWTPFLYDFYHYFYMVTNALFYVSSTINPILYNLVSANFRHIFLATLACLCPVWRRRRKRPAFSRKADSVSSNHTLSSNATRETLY

O=C(Nc1ccc(Cl)c(Cl)c1)C1CC(=O)N(c2ccc(Br)cc2)C1 (centres undefined)
EC50 (Streptococcus): 11.9 µM (active) | EC50 (Streptokinase A): 20.1 µM (active) | EC50 [1]: 5.25 µM (active) | IC50 (Prothrombin): > 50 µM (not active)

CC1OC(O[C@H]2CC[C@]3(C)C4C=C[C@]56OC[C@@]7(CC[C@@H](C)[C@H](C)C75)[C@H](O)C[C@@]6(C)[C@]4(C)CC[C@H]3C2(C)C)C(OC2OC(CO)C(O)C(O)C2OC2OCC(O)C(O)C2O)C(O)C1O (some centres undefined)
IC50 (Prothrombin): > 50 µM (not active)

Cc1c(NC(=O)CSc2nnc3c4ccccc4n(CCc4ccccc4)c3n2)c(=O)n(-c2ccccc2)n1C
EC50 [2]: 24.1 µM (active) | CC50 [3]: 4.56 µM (active) | IC50 (cells): 3.31 µM (active)

CCCCCc1cc(=O)oc2c(C(CCN3CCCCC3)c3ccc(OC)cc3)c(OC)cc(OC)c12 (centres undefined)
IC50 [4]: > 20 µM (inactive) | EC50 [5]: 15.3 µM (active) | AC50 [6]: 6.49 µM (active)

Cc1cn([C@@H](CCCCNC(=O)OC(C)(C)C)C(=O)NCCCCCCCCCCC(=O)N2CCN(C(=O)OC(C)(C)C)CC2)nn1
CC50 [7]: 37.6 µM (active)

COC(=O)c1cc(C)nc2c(C)cc3[nH]c4ccccc4c3c12
CC50 [3]: 15 µM (active) | CC50 [7]: > 40 µM (active)

CCOC(=O)c1nn(-c2ccccc2)c(C#N)c1NC(=O)c1nn(CC)cc1Br
IC50 [8]: > 80 µM (inactive) | CC50 [7]: > 40 µM (active)

Nc1[nH]cnc2nc(SCCN3CCCCC3)nc1-2
IC50 (Prothrombin): > 50 µM (not active)

CN(C)CCCN(C(=O)c1ccc(C(=O)c2ccccc2)cc1)c1nc2cc3c(cc2s1)OCCO3
IC50 [4]: 7.1 µM (active) | AC50 [9]: 14.7 µM (active) | IC50 [10]: 3.92 µM (active) | IC50 (Bcl-2-related protein A1): > 20 µM (inactive)

COc1ccccc1-n1c(C)cc(/C=C2/C(=N)N3C(=NC2=O)SN=C3S(C)(=O)=O)c1C
CC50 [3]: 19.8 µM (active) | IC50 (cells): 11.4 µM (active)

Cc1ccc(C2CC(=O)NC(SCC(=O)Nc3nccs3)=C2C#N)cc1 (centres undefined)
AC50 [11]: 51.5 µM (active)

O=C(COC(=O)c1cc(Br)ccc1O)Nc1cc(S(=O)(=O)N2CCCC2)ccc1Cl
IC50 (Prothrombin): 7.17 µM (active)

CS(=O)(=O)N(Cc1ccc(Cl)cc1)c1ccc(C(=O)NCCC2=CCCCC2)cc1
AC50 [12]: 6.69 µM (active) | AC50 [13]: 1.92 µM (active) | CC50 [7]: > 40 µM (active)

C#CCOCCOCCOCCNc1nc(N2CCN(C(=O)[C@H](CCCCN)n3cc([C@@H](N)CC(N)=O)nn3)CC2)nc(N2CCN(C(=O)[C@H](CCCCN)n3cc([C@@H](N)CC(N)=O)nn3)CC2)n1
IC50 [4]: 17.3 µM (active) | IC50 [10]: 12.5 µM (active) | IC50 (Bcl-2-related protein A1): > 20 µM (inactive)

C/C(=N\NC(=O)c1cccc(Cl)c1)C1C(=O)c2ccccc2C1=O
IC50 (Aminopeptidase N): 40.8 µM (active) | AC50 [6]: 10.7 µM (active) | AC50 [11]: 68.6 µM (active)
